Reference: the NIST ThermoML archive (doi:10.1016/j.fluid.2006.10.025)
Where “and” joins values, the source holds several entries; their conditions need not be identical. Identical values can stand only once. Numbers after ± are expanded uncertainties.

Conditions: 101.33 kPa, Liquid

OCC(F)(F)C(F)(F)C(F)(F)C(F)(F)C(F)(F)C(F)F [1,1,7-trihydrododecafluoroheptan-1-ol]
mass density (293.15 K): 1750.1 ± 7.8 kg/m3 and 1750.2 ± 7.8 kg/m3
mass density (303.15 K): 1732.7 ± 7.6 kg/m3
mass density (313.15 K): 1715 ± 7.4 kg/m3
mass density (323.15 K): 1696.9 ± 7.3 kg/m3
mass density (333.15 K): 1678.5 ± 7.1 kg/m3
mass density (343.15 K): 1659.7 ± 6.9 kg/m3
